Measured values as given in patent publication US20240116985A1, “STAPLED PEPTIDES AND METHODS THEREOF” (priority 2020, published 2024).
≈ marks a conversion by molar mass, not a printed value. Like-named read-outs stand apart in the source and are kept apart here.

Experiments:
Solubility in PBS = format: physicochemical
In short: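 Read-out is the HPLC peak area of the supernatant from ultracentrifuged PBS solution, scaled against a 50 μM peptide DMSO injection; value reported as [(PBS area)/(DMSO area)]*50 uM.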

[1] = molecular target: T1, full-length beta-Catenin (Uniprot ID P35222) (Homo sapiens, UniProt P35222); test: Fluorescence polarization IC50 (beta-catenin / 5FAM-TCF4 10-53 competition); format: binding; settings: fluorescence polarization
T1 construct: 10 nM full-length beta-Catenin (Uniprot ID P35222)
T1 sequence (P35222 1-781): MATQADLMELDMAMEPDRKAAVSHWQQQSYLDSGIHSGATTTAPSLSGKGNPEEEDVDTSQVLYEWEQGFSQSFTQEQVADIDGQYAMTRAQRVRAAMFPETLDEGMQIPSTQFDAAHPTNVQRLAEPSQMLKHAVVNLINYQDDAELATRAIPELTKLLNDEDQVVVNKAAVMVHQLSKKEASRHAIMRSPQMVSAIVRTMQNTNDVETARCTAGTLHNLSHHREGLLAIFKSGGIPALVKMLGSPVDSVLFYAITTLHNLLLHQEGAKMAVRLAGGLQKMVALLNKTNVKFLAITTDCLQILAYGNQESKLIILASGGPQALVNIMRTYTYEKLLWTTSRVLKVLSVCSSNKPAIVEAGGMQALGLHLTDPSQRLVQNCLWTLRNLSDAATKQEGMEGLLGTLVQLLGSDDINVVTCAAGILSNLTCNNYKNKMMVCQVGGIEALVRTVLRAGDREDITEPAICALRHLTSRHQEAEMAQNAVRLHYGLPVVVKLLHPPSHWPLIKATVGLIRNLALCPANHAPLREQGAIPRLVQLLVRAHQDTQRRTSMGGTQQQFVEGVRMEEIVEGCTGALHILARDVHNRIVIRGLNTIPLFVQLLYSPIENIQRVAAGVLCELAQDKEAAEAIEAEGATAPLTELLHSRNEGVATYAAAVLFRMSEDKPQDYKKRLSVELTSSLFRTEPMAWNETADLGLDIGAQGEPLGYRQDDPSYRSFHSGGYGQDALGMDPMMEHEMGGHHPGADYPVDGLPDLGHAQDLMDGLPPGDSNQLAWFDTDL

[2] = molecular target: T2, beta-catenin/TCF4 engagement (Homo sapiens, UniProt P35222); test: Nano-BRET target engagement assay (B-cat-Halo & TCF4-Luc in HEK293 cells); format: cell-based; settings: absolute IC50; read-out: NanoBRET Abs IC50
T2 construct: expressed in transfected cells; host or cells: HEK293
T2 sequence (P35222 1-781): T1 sequence (P35222 1-781)

Row | Structure (SMILES) | Solubility (Solubility in PBS) | IC50 ([1]; read-out: beta-Catenin FP IC50) | IC50 [2] | Solubility (Solubility in PBS; Solubility (uM)) | IC50 ([1]; beta-catenin, read-out: FP EC50)
1 | CC(=O)N1CCC[C@]12CC=CCCCC1(CCCC=CCCCOC(=O)N3CC[C@@](C(=O)N[C@@H](Cc4ccccc4Cl)C(=O)N[C@@H](Cc4csc5ccccc45)C(=O)N[C@@H](CCC(N)=O)C(N)=O)(C3)NC(=O)[C@H](CO)NC(=O)[C@H](Cc3ccccc3)NC(=O)[C@H](CC(C)C)NC(=O)[C@H](C)NC(=O)[C@H](CC(=O)O)NC(=O)[C@H](CC(=O)O)NC1=O)NC(=O)[C@H](CC1CCCCC1)NC(=O)[C@H](CC(=O)O)NC2=O (stereo partly drawn) [I-1148, Ac-PL3-Asp-Cha-B5-Asp-Asp-Ala-Leu-Phe-Ser-PyrS2-2C1F-BztA-Gln-NH2] | 10 µM (≈ 19.9 µg/mL) | 50 nM | 21.5 µM | – | –
2 | CC(=O)N1CCC[C@]12CC=CCCCC1(CCCC=CCCCOC(=O)N3CC[C@@](C(=O)N[C@@H](Cc4ccccc4Cl)C(=O)N[C@@H](Cc4csc5ccccc45)C(=O)N[C@@H](CO)C(N)=O)(C3)NC(=O)[C@H]([C@@H](C)O)NC(=O)[C@H](Cc3ccccc3)NC(=O)[C@H](C)NC(=O)[C@H](CC(C)C)NC(=O)[C@H](CC(=O)O)NC(=O)[C@H](CC(=O)O)NC1=O)NC(=O)[C@H](CC1CCCCC1)NC(=O)[C@H](CC(=O)O)NC2=O (stereo partly drawn) [I-1150, Ac-PL3-Asp-Cha-B5-Asp-Asp-Leu-Ala-Phe-Thr-PyrS2-2C1F-BztA-Ser-NH2] | – | 12 nM | 21.4 µM | 18 µM (≈ 35.3 µg/mL) | –
3 | CC(=O)N1CCC[C@]12CC=CCCCC1(CCCC=CCCCOC(=O)N3CC[C@@](C(=O)N[C@@H](Cc4ccccc4Cl)C(=O)N[C@@H](Cc4csc5ccccc45)C(=O)N[C@@H](CO)C(N)=O)(C3)NC(=O)[C@H]([C@@H](C)O)NC(=O)[C@H](Cc3ccccc3)NC(=O)[C@H](CC(C)C)NC(=O)[C@H](C)NC(=O)[C@H](CC(=O)O)NC(=O)[C@H](CC(=O)O)NC1=O)NC(=O)[C@H](CC1CCCCC1)NC(=O)[C@H](CC(=O)O)NC2=O (stereo partly drawn) [I-1151, Ac-PL3-Asp-Cha-B5-Asp-Asp-Ala-Leu-Phe-Thr-PyrS2-2C1F-BztA-Ser-NH2] | 10 µM (≈ 19.6 µg/mL) | 30 nM | 25.3 µM | – | –
4 | CC(=O)N1CCC[C@]12CC=CCCCC1(CCCC=CCCCOC(=O)N3CC[C@@](C(=O)N[C@@H](Cc4ccccc4Cl)C(=O)N[C@@H](Cc4csc5ccccc45)C(=O)N[C@@H](CO)C(N)=O)(C3)NC(=O)[C@H]([C@@H](C)O)NC(=O)[C@H](Cc3ccccc3)NC(=O)[C@H](CC(C)C)NC(=O)[C@H](CC(C)C)NC(=O)[C@H](CC(=O)O)NC(=O)[C@H](CC(=O)O)NC1=O)NC(=O)[C@H](CC1CCCCC1)NC(=O)[C@H](CC(=O)O)NC2=O (stereo partly drawn) [I-1152, Ac-PL3-Asp-Cha-B5-Asp-Asp-Leu-Leu-Phe-Thr-PyrS2-2C1F-BztA-Ser-NH2] | 10 µM (≈ 20 µg/mL) | 65 nM | 14.2 µM | – | –
5 | CC(=O)N1CCC[C@]12CC=CCCCC1(CCCC=CCCCOC(=O)N3CC[C@@](C(=O)N[C@@H](Cc4ccccc4Cl)C(=O)N[C@@H](Cc4csc5ccccc45)C(=O)N[C@@H](CO)C(N)=O)(C3)NC(=O)[C@H]([C@@H](C)O)NC(=O)[C@H](Cc3ccccc3)NC(=O)[C@H](CC(C)C)NC(=O)[C@H](C)NC(=O)[C@H](CC(=O)O)NC(=O)[C@H](CC(=O)O)NC1=O)NC(=O)[C@H](Cc1ccccc1)NC(=O)[C@H](CC(=O)O)NC2=O (stereo partly drawn) [I-1157, Ac-PL3-Asp-Phe-B5-Asp-Asp-Ala-Leu-Phe-Thr-PyrS2-2C1F-BztA-Ser-NH2] | – | 36 nM | > 20 µM | 15 µM (≈ 29.3 µg/mL) | –
6 | CC(=O)N1CCC[C@]12CC=CCCCC1(CCCC=CCCCOC(=O)N3CC[C@@](C(=O)N[C@@H](Cc4ccsc4)C(=O)N[C@@H](Cc4csc5ccccc45)C(=O)N[C@@H](CCC(N)=O)C(N)=O)(C3)NC(=O)[C@H]([C@@H](C)O)NC(=O)[C@H](Cc3ccccc3)NC(=O)[C@H](C)NC(=O)[C@H](C)NC(=O)[C@H]([C@@H](C)O)NC(=O)[C@H](CC(=O)O)NC1=O)NC(=O)[C@H](CC(C)(C)C)NC(=O)[C@H](CC(=O)O)NC2=O (stereo partly drawn) [I-1166, Ac-PL3-Asp-Npg-B5-Asp-Thr-Ala-Ala-Phe-Thr-PyrS2-3Thi-BztA-Gln-NH2] | – | 14 nM | 14.6 µM | 14 µM (≈ 26.5 µg/mL) | –
7 | CC(=O)N1CCC[C@]12CC=CCCCC1(CCCC=CCCCOC(=O)N3CC[C@@](C(=O)N[C@@H](Cc4ccsc4)C(=O)N[C@@H](Cc4csc5ccccc45)C(=O)N[C@@H](CCC(N)=O)C(N)=O)(C3)NC(=O)[C@H](CC(C)C)NC(=O)[C@H](Cc3ccccc3)NC(=O)[C@H](C)NC(=O)[C@H](C)NC(=O)[C@H]([C@@H](C)O)NC(=O)[C@H](CC(=O)O)NC1=O)NC(=O)[C@H](CC(C)(C)C)NC(=O)[C@H](CC(=O)O)NC2=O (stereo partly drawn) [I-1167, Ac-PL3-Asp-Npg-B5-Asp-Thr-Ala-Ala-Phe-Leu-PyrS2-3Thi-BztA-Gln-NH2] | 10 µM (≈ 19 µg/mL) | 34 nM | 11.7 µM | – | –
8 | CC(=O)N1CCC[C@]12CC=CCCCC1(CCCC=CCCCOC(=O)N3CC[C@@](C(=O)N[C@@H](Cc4ccccc4Cl)C(=O)N[C@@H](Cc4csc5ccccc45)C(=O)N[C@@H](CCC(N)=O)C(N)=O)(C3)NC(=O)[C@H]([C@@H](C)O)NC(=O)[C@H](Cc3ccccc3)NC(=O)[C@H](C)NC(=O)[C@H](C)NC(=O)[C@H]([C@@H](C)O)NC(=O)[C@H](CC(=O)O)NC1=O)NC(=O)[C@H](CC(C)(C)C)NC(=O)[C@H](CC(=O)O)NC2=O (stereo partly drawn) [I-1168, Ac-PL3-Asp-Npg-B5-Asp-Thr-Ala-Ala-Phe-Thr-PyrS2-2C1F-BztA-Gln-NH2] | 10 µM (≈ 19.2 µg/mL) | 25 nM | 31.4 µM | – | –
9 | CC(=O)N1CCC[C@]12CC=CCCCC1(CCCC=CCCCOC(=O)N3CC[C@@](C(=O)N[C@@H](Cc4ccsc4)C(=O)N[C@@H](Cc4csc5ccccc45)C(=O)N[C@@H](CO)C(N)=O)(C3)NC(=O)[C@H]([C@@H](C)O)NC(=O)[C@H](Cc3ccccc3)NC(=O)[C@H](C)NC(=O)[C@H](C)NC(=O)[C@H]([C@@H](C)O)NC(=O)[C@H](CC(=O)O)NC1=O)NC(=O)[C@H](CC(C)(C)C)NC(=O)[C@H](CC(=O)O)NC2=O (stereo partly drawn) [I-1170, Ac-PL3-Asp-Npg-B5-Asp-Thr-Ala-Ala-Phe-Thr-PyrS2-3Thi-BztA-Ser-NH2] | 10 µM (≈ 18.5 µg/mL) | 15 nM | 13.5 µM | – | –
10 | CC(=O)N1CCC[C@]12CC=CCCCC1(CCCC=CCCCOC(=O)N3CC[C@@](C(=O)N[C@@H](Cc4ccsc4)C(=O)N[C@@H](Cc4csc5ccccc45)C(=O)N[C@@H](CCC(N)=O)C(N)=O)(C3)NC(=O)[C@H]([C@@H](C)O)NC(=O)[C@H](Cc3ccccc3)NC(=O)[C@H](C)NC(=O)[C@H](C)NC(=O)[C@H]([C@@H](C)O)NC(=O)[C@H](CC(=O)O)NC1=O)NC(=O)[C@H](CC1CCCCC1)NC(=O)[C@H](CC(=O)O)NC2=O (stereo partly drawn) [I-1173, Ac-PL3-Asp-Cha-B5-Asp-Thr-Ala-Ala-Phe-Thr-PyrS2-3Thi-BztA-Gln-NH2] | 10 µM (≈ 19.2 µg/mL) | 12 nM | 17.2 µM | – | –
11 | CC(=O)N1CCC[C@]12CC=CCCCC1(CCCC=CCCCOC(=O)N3CC[C@@](C(=O)N[C@@H](Cc4ccccc4Cl)C(=O)N[C@@H](Cc4csc5ccccc45)C(=O)N[C@@H](CCC(N)=O)C(N)=O)(C3)NC(=O)[C@H]([C@@H](C)O)NC(=O)[C@H](Cc3ccccc3)NC(=O)[C@H](C)NC(=O)[C@H](C)NC(=O)[C@H]([C@@H](C)O)NC(=O)[C@H](CC(=O)O)NC1=O)NC(=O)[C@H](CC1CCCCC1)NC(=O)[C@H](CC(=O)O)NC2=O (stereo partly drawn) [I-1175, Ac-PL3-Asp-Cha-B5-Asp-Thr-Ala-Ala-Phe-Thr-PyrS2-2C1F-BztA-Gln-NH2] | 10 µM (≈ 19.5 µg/mL) | 24 nM | 27.3 µM | – | –
12 | CC(=O)N1CCC[C@]12CC=CCCCC1(CCCC=CCCCOC(=O)N3CC[C@@](C(=O)N[C@@H](Cc4ccsc4)C(=O)N[C@@H](Cc4csc5ccccc45)C(=O)N[C@@H](CCC(N)=O)C(N)=O)(C3)NC(=O)[C@H](CC(C)C)NC(=O)[C@H](Cc3ccccc3)NC(=O)[C@H](C)NC(=O)C(C)(C)NC(=O)[C@H](CC(=O)O)NC(=O)[C@H](CC(=O)O)NC1=O)NC(=O)[C@H](CC(C)(C)C)NC(=O)[C@H](CC(=O)O)NC2=O (stereo partly drawn) [I-1177, Ac-PL3-Asp-Npg-B5-Asp-Asp-Aib-Ala-Phe-Leu-PyrS2-3Thi-BztA-Gln-NH2] | – | 25 nM | 4.3 µM | 35 µM (≈ 67.6 µg/mL) | –
13 | CC(=O)N1CCC[C@H]1C(=O)N[C@@H](CC(=O)O)C(=O)N[C@@H](CC(C)(C)C)C(=O)N[C@]1(C)CCCC=CCCCOC(=O)N2CC[C@@](C(=O)N[C@@H](Cc3ccsc3)C(=O)N[C@@H](Cc3csc4ccccc34)C(=O)N[C@@H](CCC(N)=O)C(N)=O)(C2)NC(=O)[C@H](CC(C)C)NC(=O)[C@H](Cc2ccccc2)NC(=O)[C@H](C)NC(=O)[C@H](C)NC(=O)[C@H](CC(=O)O)NC(=O)[C@H](CC(=O)O)NC1=O [I-1181, Ac-Pro-Asp-Npg-R5-Asp-Asp-Ala-Ala-Phe-Leu-PyrS2-3Thi-BztA-Gln-NH2] | 50 µM (≈ 92.6 µg/mL) | 297 nM | > 20 µM | – | 226 nM
